Experiment in all cases: MIC by micro broth dilution
What all share (type): cell-based

Assay [1] relates to A. baumannii ATCC 1906. The following applies: for MIC: Acinetobacter baumannii, ATCC1906, read-out: Minimum inhibitory concentration (MIC). As for the experimental part: (§1) MIC of DART molecules were determined by micro broth dilution as per CLSI guidelines. Bacterial strains were cultured in Brain Heart Infusion Agar (BHIA) at 37° C. for 24 h. For MIC determination, BHI broth (100 μl) was added to each of the wells of a 96 well plate. 100 μl of broth containing drug was added to the first well (1A to 1H) and thereafter serial (double) dilutions were carried out for up to 10 wells (column 1 to column 10 of the 96 well plate). Bacterial inoculum was prepared by adjusting the bacterial culture turbidity to 0.5 McFarland standard (approximately 1.5×10^8 cells/ml) and further diluted (100 times with sterile BHI broth). Diluted bacterial suspension (100 μl) was added to each well except sterility control wells (column 12 of 96 well plate). The plates were incubated at 37° C. for 24 h. The MIC of the test compound was measured after addition of Alamar blue dye.

For assay [2], the system named is A. baumannii CCARM 12001. As for the experimental part:
as §1

The test system of assay [3] is A. baumannii CCARM 12020. Here is the method:
as §1

In assay [4] the test system is E. aerogenes M2-1. As to conditions: for MIC: Klebsiella aerogenes, M21, read-out: Minimum inhibitory concentration (MIC). Here is the method: as §1
Assay [5] concerns E. aerogenes NCIM 5139. The following applies: for MIC: Klebsiella aerogenes, NCIM5139, read-out: Minimum inhibitory concentration (MIC). Here is the method: as §1
The subject of assay [6] is E. coli BAA 196. The following applies: for MIC: Escherichia coli, BAA196, read-out: Minimum inhibitory concentration (MIC). Here is the method: as §1
The test system of assay [7] is E. coli MTCC 1687. The following applies: for MIC: Escherichia coli, MTCC1687, read-out: Minimum inhibitory concentration (MIC). Here is the method:
as §1

Assay [8] concerns E. faecium NCIM 5421. The following applies: for MIC: Enterococcus faecium, NCIM5421, read-out: Minimum inhibitory concentration (MIC). Here is the method:
as §1

Assay [9] relates to K. pneumonia ATCC 13883. The following applies: for activity in words: Klebsiella pneumonia (susceptible); for MIC: Klebsiella pneumoniae, ATCC13883, read-out: Minimum inhibitory concentration (MIC). As for the experimental part: as §1
For assay [10], the system named is P. aeruginosa ATCC 27853. As to conditions: for MIC: Pseudomonas aeruginosa, ATCC27853, read-out: Minimum inhibitory concentration (MIC). As for the experimental part:
as §1

The subject of assay [11] is S. aureus ATCC 43300. The following applies: S. aureus ATCC 43300; for MIC: Staphylococcus aureus, ATCC43300, read-out: Minimum inhibitory concentration (MIC). As for the experimental part:
as §1

The subject of assay [12] is S. aureus CCARM 3505. As to conditions: for MIC: Staphylococcus aureus, CCARM3505, read-out: Minimum inhibitory concentration (MIC). As for the experimental part: as §1
The subject of assay [13] is S. aureus MTCC 6908. As to conditions: for MIC: Staphylococcus aureus, MTCC6908, read-out: Minimum inhibitory concentration (MIC). Here is the method: as §1
Assay [14] has as its system S. epidermidis ATCC 35984. The following applies: for MIC: Staphylococcus epidermidis, ATCC35984, read-out: Minimum inhibitory concentration (MIC). As for the experimental part: as §1
Assay [15] relates to S. epidermidis S12-1. As to conditions: for MIC: Staphylococcus epidermidis, S121, read-out: Minimum inhibitory concentration (MIC). Here is the method:
as §1

The subject of assay [16] is P. aeruginosa CCARM 2161. The following applies: Pseudomonas aeruginosa, CCARM2161, read-out: Minimum inhibitory concentration (MIC). As for the experimental part:
as §1

Assay [17] deals with P. aeruginosa CCARM 2204. As to conditions: Pseudomonas aeruginosa, CCARM2204, read-out: Minimum inhibitory concentration (MIC). As for the experimental part:
as §1

≈ marks a conversion by molar mass, not a printed value.

As for `O=C(N[C@@H]1CCCCN(c2c(F)cc3c(=O)c(C(=O)O)cn(C4CC4)c3c2Cl)C1)c1ccc([N+](=O)[O-])o1` [Compound 16], the “Minimum inhibitory concentration (MIC)” value in assay [1] was “.05 µg/mL”; in assay [2], 16 µg/mL (≈ 30 µM); in assay [3], greater than 16 µg/mL; in assay [4], 4 µg/mL (≈ 7.51 µM); in [5], 2 µg/mL (≈ 3.75 µM); in [6] it was greater than 16 µg/mL. For the same compound, the “Minimum inhibitory concentration (MIC)” value in assay [7] is 4 µg/mL (≈ 7.51 µM); in [8] it was 0.12 µg/mL (≈ 0.225 µM); in assay [9] (K. pneumonia ATCC 13883) it was 0.25 µg/mL (≈ 0.469 µM); in assay [10] it was 2 µg/mL (≈ 3.75 µM); in [11] it was less than 0.01 µg/mL; in assay [12] it was 0.5 µg/mL (≈ 0.938 µM). Besides, the “Minimum inhibitory concentration (MIC)” value in [13] was 0.25 µg/mL (≈ 0.469 µM); in [14], less than 0.03 µg/mL; in assay [15] it was 0.13 µg/mL (≈ 0.244 µM). For the same compound, the activity in words entry in [9] is “active”.
As to `CC1Sc2c(C(=O)O)c(=O)c3cc(F)c(N4CCN(C(=O)CNC(=N)N)CC4)cc3n21` (centres unmarked) [Compound 43, 7-(4-(Carbamimidoylglycyl)piperazin-1-yl)-6-fluoro-1-methyl-4-oxo-1H,4H-[1,3]thiazeto[3,2-a]quinoline-3-carboxylic acid], the MIC in [6] is greater than 16 µg/mL; in assay [7], 0.25 µg/mL (≈ 0.557 µM); in assay [8], greater than 16 µg/mL; in [11], 8 µg/mL (≈ 17.8 µM); in assay [12], greater than 16 µg/mL; in assay [13], 8 µg/mL (≈ 17.8 µM). For the same compound, the MIC in assay [14] and in [15] was greater than 16 µg/mL in each case.
On to `CC1Sc2c(C(=O)O)c(=O)c3cc(F)c(N4CCN(Cc5nc6ccc(N)cc6[nH]5)CC4)cc3n21` (centres unmarked) [Compound 20, 7-(4-((6-Amino-1H-benzo[d]imidazol-2-yl)methyl)piperazin-1-yl)-6-fluoro-1-methyl-4-oxo-1H,4H-[1,3]thiazeto[3,2-a]quinoline-3-carboxylic acid], for which the MIC in assay [1] was 8 µg/mL (≈ 16.2 µM); in [4], 4 µg/mL (≈ 8.09 µM); in [5], 0.5 µg/mL (≈ 1.01 µM); in assay [6], greater than 16 µg/mL; in assay [7] it was 1 µg/mL (≈ 2.02 µM); in assay [8], 1 µg/mL (≈ 2.02 µM). Also, the MIC was 0.25 µg/mL (≈ 0.506 µM) in assay [9] (K. pneumonia ATCC 13883); 4 µg/mL (≈ 8.09 µM) in [10]; 0.5 µg/mL (≈ 1.01 µM) in assay [11]; greater than 16 µg/mL in assay [12]; 8 µg/mL (≈ 16.2 µM) in [13]; 0.13 µg/mL (≈ 0.263 µM) in [14]. Moreover, in assay [15], the MIC was greater than 16 µg/mL. Further, the activity in words entry in [9] was “active”.
With `CC1Sc2c(C(=O)O)c(=O)c3cc(F)c(N4CCN(CC(=O)Nc5ncc([N+](=O)[O-])s5)CC4)cc3n21` (centres unmarked) [Compound 6, 6-Fluoro-1-methyl-7-(4-(2-((5-nitrothiazol-2-yl)amino)-2-oxoethyl)piperazin-1-yl)-4-oxo-1H,4H-[1,3]-thiazeto[3,2-a]quinoline-3-carboxylic acid], the MIC in assay [1] was 8 µg/mL (≈ 15 µM); in assay [4] it was 4 µg/mL (≈ 7.48 µM); in [5], 4 µg/mL (≈ 7.48 µM); in assay [6], 16 µg/mL (≈ 29.9 µM); in assay [7], 1 µg/mL (≈ 1.87 µM); in [8], 0.25 µg/mL (≈ 0.468 µM). Besides, the MIC is 0.25 µg/mL (≈ 0.468 µM) in assay [9] (K. pneumonia ATCC 13883); 8 µg/mL (≈ 15 µM) in assay [10]; less than 0.13 µg/mL in [11]; 4 µg/mL (≈ 7.48 µM) in assay [12]; 0.1 µg/mL (≈ 0.187 µM) in [13]; less than 0.03 µg/mL in assay [14]. In addition, the MIC in [15] was 4 µg/mL (≈ 7.48 µM). For the same compound, the activity in words result in assay [9] is recorded as “active”.
On to `CC1Sc2c(C(=O)O)c(=O)c3cc(F)c(N4CCN(Cc5nc6ccc([N+](=O)[O-])cc6[nH]5)CC4)cc3n21` (centres unmarked) [Compound 18, 6-Fluoro-1-methyl-7-(4-((6-nitro-1H-benzo[d]imidazol-2-yl)methyl)piperazin-1-yl)-4-oxo-1H,4H-[1,3]thiazeto[3,2-a]quinoline-3-carboxylic acid], for which the MIC in assay [1] was 1 µg/mL (≈ 1.91 µM); in [4], greater than 16 µg/mL; in assay [5], 0.25 µg/mL (≈ 0.477 µM); in assay [6] it was greater than 4 µg/mL; in assay [7], greater than 4 µg/mL; in assay [8], 0.5 µg/mL (≈ 0.953 µM). The MIC was 0.12 µg/mL (≈ 0.229 µM) in assay [9] (K. pneumonia ATCC 13883); greater than 16 µg/mL in assay [10]; greater than 16 µg/mL in assay [16]; greater than 16 µg/mL in assay [17]; 1 µg/mL (≈ 1.91 µM) in [11]; greater than 4 µg/mL in [12]. Further, the MIC was 1 µg/mL (≈ 1.91 µM) in [13], 0.25 µg/mL (≈ 0.477 µM) in assay [14] and greater than 16 µg/mL in [15]. Also, the activity in words result in assay [9] was “active”.
